Molecules are shown by their SMILES. Counter-ions that a name gives are not always drawn.

This test concerns Endogenous Huntingtin Protein (HTT). Description: Endogenous Huntingtin Protein Assay (ELISA-based MSD electrochemiluminescence). The format is cell-based. The settings on record: Table 1. The method in brief:
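HTT protein in lysates was measured by electrochemiluminescence on the MSD platform. Rabbit monoclonal 5656S followed by SULFO-TAG anti-rabbit antibody served for detection after overnight 4 °C capture with MAB2166 or the polyglutamine-directed MW1 antibody.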
A general note: An ELISA detects its analyte on a solid surface through an enzyme-linked reagent.
In general, IC50 refers to the concentration needed to halve the response being measured. High values mean weaker potency, low ones greater potency. `COc1ccc(-c2cc(=O)n3cc(N4CCNCC4)ccc3n2)cc1F` [compound 72, 2-(3-fluoro-4-methoxyphenyl)-7-(piperazin-1-yl)-4H-pyrido[1,2-a]pyrimidin-4-one] showed an IC50 of 3 to 33 µM.

Take `CCc1nc(C)cn2nc(-c3cc(=O)n4cc(C5CCN(C)CC5)ncc4n3)cc12` [compound 654, 2-(4-ethyl-6-methylpyrazolo[1,5-a]pyrazin-2-yl)-7-(1-methylpiperidin-4-yl)-4H-pyrazino[1,2-a]pyrimidin-4-one]: the IC50 is < 0.1 µM. As for `CN1CCC(c2cn3c(=O)cc(-c4ccc5nn(C)cc5c4)nc3cn2)CC1` [compound 567, 2-(2-methyl-2H-indazol-5-yl)-7-(1-methylpiperidin-4-yl)-4H-pyrazino[1,2-a]pyrimidin-4-one], the figure is 3 to 33 µM; as for `Cc1cn2cc(-c3cc(=O)n4cc(N5CCN(CCOCCO)[C@@H](C)C5)ccc4n3)cc(F)c2n1` [compound 540, 2-(8-fluoro-2-methylimidazo[1,2-a]pyridin-6-yl)-7-{(3S)-4-[2-(2-hydroxyethoxy)ethyl]-3-methylpiperazin-1-yl}-4H-pyrido[1,2-a]pyrimidin-4-one], 1 to 3 µM; as for `Cc1cc(C2CCN(C)CC2)cn2c(=O)cc(-c3ccc4nn(C)cc4c3)nc12` [compound 705, 9-methyl-2-(2-methyl-2H-indazol-5-yl)-7-(1-methylpiperidin-4-yl)-4H-pyrido[1,2-a]pyrimidin-4-one], 0.5 to 1 µM. In the case of `CCN1CCC(c2cn3c(=O)cc(-c4cc5c(C)nc(C)cn5c4)nc3c(C)n2)CC1` [compound 876, 2-(1,3-dimethylpyrrolo[1,2-a]pyrazin-7-yl)-7-(1-ethylpiperidin-4-yl)-9-methyl-4H-pyrazino[1,2-a]pyrimidin-4-one] it was 1 to 3 µM; in that of `Cc1cc(-c2cc(=O)n3cc(N4CCN[C@@H](C)C4)ccc3n2)cc2cnn(C)c12` [compound 777, 2-(1,7-dimethyl-1H-indazol-5-yl)-7-[(3S)-3-methylpiperazin-1-yl]-4H-pyrido[1,2-a]pyrimidin-4-one], 3 to 33 µM; in that of `CCc1nc(C)cn2nc(-c3cc(=O)n4cc(C5CCN(CCO)CC5)cc(C)c4n3)cc12` [compound 793, 2-(4-ethyl-6-methylpyrazolo[1,5-a]pyrazin-2-yl)-7-[1-(2-hydroxyethyl)piperidin-4-yl]-9-methyl-4H-pyrido[1,2-a]pyrimidin-4-one], 1 to 3 µM. As for `CCN1CCC(c2cn3c(=O)cc(-c4cc(C)c5nc(C)cn5c4)nc3cn2)CC1` [compound 593, 2-(2,8-dimethylimidazo[1,2-a]pyridin-6-yl)-7-(1-ethylpiperidin-4-yl)-4H-pyrazino[1,2-a]pyrimidin-4-one], the figure is 1 to 3 µM. `Cc1nc2c(F)cc(-c3cc(=O)n4cc(N5CCN(C)CC5)ccc4n3)cc2o1` [compound 308, 2-(4-fluoro-2-methyl-1,3-benzoxazol-6-yl)-7-(4-methylpiperazin-1-yl)-4H-pyrido[1,2-a]pyrimidin-4-one] yielded an IC50 of 0.5 to 1 µM.

In the case of `Cc1cn2nc(-c3cc(=O)n4cc(N5CCN6CCC[C@@H]6C5)ccc4n3)cc2c(C)n1` [compound 337, 2-(4,6-dimethylpyrazolo[1,5-a]pyrazin-2-yl)-7-[(8aR)-hexahydropyrrolo[1,2-a]pyrazin-2(1H)-yl]-4H-pyrido[1,2-a]pyrimidin-4-one], the IC50 was in the range of 3 to 33 µM. As to `Cc1cn2nc(-c3cc(=O)n4cc(C5CCN(CCF)CC5)ccc4n3)cc2c(C)n1` [compound 662, 2-(4,6-dimethylpyrazolo[1,5-a]pyrazin-2-yl)-7-[1-(2-fluoroethyl)piperidin-4-yl]-4H-pyrido[1,2-a]pyrimidin-4-one], the IC50 lay within 0.5 to 1 µM.

Regarding `Cn1cc2cc(-c3cc(=O)n4cc(C5CCN(CCO)CC5)ncc4n3)ccc2n1` [compound 569, 7-[1-(2-hydroxyethyl)piperidin-4-yl]-2-(2-methyl-2H-indazol-5-yl)-4H-pyrazino[1,2-a]pyrimidin-4-one], the IC50 was in the range of 1 to 3 µM. In the case of `Cc1cn2nc(-c3cc(=O)n4cc(N5C[C@@H]6C[C@H]5CN6C)ccc4n3)cc2c(C)n1` [compound 400, 2-(4,6-dimethylpyrazolo[1,5-a]pyrazin-2-yl)-7-[(1S,4S)-5-methyl-2,5-diazabicyclo[2.2.1]hept-2-yl]-4H-pyrido[1,2-a]pyrimidin-4-one] it was 3 to 33 µM; in that of `CCN1CCC(c2ccc3nc(-c4cc(C)c5nn(C)cc5c4)cc(=O)n3c2)CC1` [compound 753, 2-(2,7-dimethyl-2H-indazol-5-yl)-7-(1-ethylpiperidin-4-yl)-4H-pyrido[1,2-a]pyrimidin-4-one], 0.1 to 0.5 µM; in that of `Cc1cc(-c2cc(=O)n3cc(C4CCNCC4)nc(C)c3n2)cc2cn(C)nc12` [compound 871, 2-(2,7-dimethyl-2H-indazol-5-yl)-9-methyl-7-(piperidin-4-yl)-4H-pyrazino[1,2-a]pyrimidin-4-one hydrochloride (1:1)], < 0.1 µM. For `Cc1cc2cc(-c3cc(=O)n4cc(N5CCN[C@@H](C)C5)ccc4n3)ccn2n1` [compound 856, 7-[(3S)-3-methylpiperazin-1-yl]-2-(2-methylpyrazolo[1,5-a]pyridin-5-yl)-4H-pyrido[1,2-a]pyrimidin-4-one hydrochloride (1:2)], the IC50 was 1 to 3 µM. For the compound `CCN1CCC(c2cn3c(=O)cc(-c4ccc5nn(C)cc5c4)nc3c(C)n2)CC1` [compound 864, 7-(1-ethylpiperidin-4-yl)-9-methyl-2-(2-methyl-2H-indazol-5-yl)-4H-pyrazino[1,2-a]pyrimidin-4-one], the 50% inhibitory concentration (IC50) is < 0.1 µM. With `Cn1ncc2cc(-c3cc(=O)n4cc(N5CCNCC5)ccc4n3)ccc21` [compound 490, 2-(1-methyl-1H-indazol-5-yl)-7-(piperazin-1-yl)-4H-pyrido[1,2-a]pyrimidin-4-one], the IC50 lay within 3 to 33 µM. In the case of `Cc1cn2nc(-c3cc(=O)n4cc(N5CCN(CCO)[C@H](C)C5)cc(C)c4n3)cc2c(C)n1` [compound 673, 2-(4,6-dimethylpyrazolo[1,5-a]pyrazin-2-yl)-7-[(3R)-4-(2-hydroxyethyl)-3-methylpiperazin-1-yl]-9-methyl-4H-pyrido[1,2-a]pyrimidin-4-one] it was 3 to 33 µM; in that of `CCc1nc(C)cn2nc(-c3cc(=O)n4cc(N5C[C@@H](C)N[C@@H](C)C5)ccc4n3)cc12` [compound 633, 7-[(3R,5S)-3,5-dimethylpiperazin-1-yl]-2-(4-ethyl-6-methylpyrazolo[1,5-a]pyrazin-2-yl)-4H-pyrido[1,2-a]pyrimidin-4-one], 3 to 33 µM.
